Laboratory results: patent publication US9930888B2, “Composition” (Conopco, Inc., priority 2013, dated 2018)

Test system: S. epidermidis
Test: bacterial respiration of S. epidermidis suspension in microplate
Format: cell-based
Conditions: lactam pre-blended with hydrotrope, added to remainder of composition, diluted to 11.5 ppm and 0.575 ppm; 20 hours
Protocol: Test samples were diluted in sterile water to achieve a 11.5 ppm level of lactam. Dilute solution (80 μl) was added to a S. epidermidis suspension (20 μl) of bacteria at a concentration of 8 logs in a microplate. Growth media (100 μl tryptone soya broth) was added to each well of the microplate and incubated for 20 hours. Bacterial respiration was measured every 30 minutes and the results were: • A—lactam+hydrotrope only (respiration of surviving bacteria detected ˜4-5 h) • B—lactam added directly to base formulation (which contains MPG)—no pre-mixing prior to addition (respiration of surviving bacteria detected 4-5 hrs) • C—lactam pre-mixed with hydrotrope and then added to base formulation (respiration of surviving bacteria not detected—20 hrs is max detection time) • D—hydrotrope added to base formulation (respiration of surviving bacteria detected 3-4 hrs). The example below is from data obtained when pre-blending lactams with hydrotrope before adding to the remainder of the composition, and diluting to 11.5 ppm and 0.575 ppm in sterile water in order to assess efficacy against S. epidermidis suspension Dilute solution (80 μl) was added to a S. epidermidis suspension (20 μl) of bacteria at a concentration of 8 logs in a microplate. Growth media (100 μl tryptone soya broth) was added to each well of the microplate and incubated for 20 hours. Bacterial respiration was measured every 30 minutes. Data of the test samples were then compared to un-treated cell suspensions (sterile water added instead of test samples) and percent inhibition calculated.

Row | SMILES | Result (inhibition of bacterial respiration versus water control) [%]
1 | C=C1NC(=O)CC1c1ccccc1F (centres unmarked) [5-methylene-4-(2′-fluorophenyl)-dihydropyrrol-2-one] | 79.4
2 | C=C1NC(=O)C=C1c1ccc(Br)cc1 [5-methylene-4-(4′-bromophenyl)-dihydroprrol-2-one] | 82.5
